Assay results as given in US10168342B2, “Lipid probes and uses thereof” (THE SCRIPPS RESEARCH INSTITUTE, priority 2015, dated 2019).
Read-outs that look alike come from different tables or passages of the source.

How the values were obtained:
[1] = molecular target: T1, AEA-DA lipid probe targets in Neuro2a cells (Mus musculus, UniProt P62492)
T1 sequence (P62492 1-216): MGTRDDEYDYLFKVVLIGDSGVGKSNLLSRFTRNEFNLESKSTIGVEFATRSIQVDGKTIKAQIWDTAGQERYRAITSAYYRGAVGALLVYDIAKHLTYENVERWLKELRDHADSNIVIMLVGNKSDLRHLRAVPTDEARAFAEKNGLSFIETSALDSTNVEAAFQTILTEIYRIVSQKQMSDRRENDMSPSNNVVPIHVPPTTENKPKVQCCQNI

[2] = molecular target: T2, AEA-DA lipid probe targets in Neuro2a cells (Mus musculus, UniProt Q60605)
T2 sequence (Q60605 1-151): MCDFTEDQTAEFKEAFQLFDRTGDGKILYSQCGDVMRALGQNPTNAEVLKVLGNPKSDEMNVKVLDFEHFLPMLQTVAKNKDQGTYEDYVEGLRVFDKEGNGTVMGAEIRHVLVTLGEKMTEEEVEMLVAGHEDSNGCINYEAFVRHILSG

[3] = molecular target: AEA-DA lipid probe targets in Neuro2a cells (Mus musculus, UniProt Q60716)
Chain of AEA-DA lipid probe targets in Neuro2a cells (Mus musculus, UniProt Q60716) (Q60716 24-537): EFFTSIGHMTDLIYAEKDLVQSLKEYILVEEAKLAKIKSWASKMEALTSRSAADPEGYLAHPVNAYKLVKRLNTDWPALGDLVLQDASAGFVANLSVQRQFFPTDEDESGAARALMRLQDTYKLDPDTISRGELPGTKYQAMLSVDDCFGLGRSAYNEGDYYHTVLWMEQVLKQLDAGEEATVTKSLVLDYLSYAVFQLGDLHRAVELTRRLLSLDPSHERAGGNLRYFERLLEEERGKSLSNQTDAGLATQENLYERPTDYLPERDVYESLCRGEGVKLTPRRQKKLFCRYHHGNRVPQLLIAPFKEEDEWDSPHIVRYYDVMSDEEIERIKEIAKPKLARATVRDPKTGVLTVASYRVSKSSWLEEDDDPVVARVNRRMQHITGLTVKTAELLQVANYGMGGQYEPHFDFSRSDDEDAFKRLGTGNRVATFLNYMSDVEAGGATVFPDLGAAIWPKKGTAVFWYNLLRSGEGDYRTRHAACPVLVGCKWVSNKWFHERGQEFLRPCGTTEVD

[4] = molecular target: AEA-DA lipid probe targets in Neuro2a cells (Mus musculus, UniProt Q60864)
[5] = molecular target: AEA-DA lipid probe targets in Neuro2a cells (Mus musculus, UniProt Q6PA06)
Chain of AEA-DA lipid probe targets in Neuro2a cells (Mus musculus, UniProt Q6PA06) (Q6PA06 whole entry): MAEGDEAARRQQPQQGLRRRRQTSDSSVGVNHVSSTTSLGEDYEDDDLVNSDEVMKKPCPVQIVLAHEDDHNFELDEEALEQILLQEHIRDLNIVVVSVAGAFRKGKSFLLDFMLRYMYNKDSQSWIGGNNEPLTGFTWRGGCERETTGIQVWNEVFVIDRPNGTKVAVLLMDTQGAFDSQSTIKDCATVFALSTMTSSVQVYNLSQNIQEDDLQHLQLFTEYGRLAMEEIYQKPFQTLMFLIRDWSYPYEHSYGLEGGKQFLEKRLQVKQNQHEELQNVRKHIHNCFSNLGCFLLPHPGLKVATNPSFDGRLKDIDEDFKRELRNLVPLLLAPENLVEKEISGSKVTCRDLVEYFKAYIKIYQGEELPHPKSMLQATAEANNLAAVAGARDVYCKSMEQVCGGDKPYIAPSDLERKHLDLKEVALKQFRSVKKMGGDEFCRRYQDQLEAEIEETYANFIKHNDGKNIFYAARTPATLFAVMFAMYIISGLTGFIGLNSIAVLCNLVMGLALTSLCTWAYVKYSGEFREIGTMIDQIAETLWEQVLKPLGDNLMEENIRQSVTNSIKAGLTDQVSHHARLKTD

[6] = molecular target: T3, AEA-DA lipid probe targets in Neuro2a cells (Mus musculus, UniProt Q8K0C4)
T3 sequence (Q8K0C4 1-503): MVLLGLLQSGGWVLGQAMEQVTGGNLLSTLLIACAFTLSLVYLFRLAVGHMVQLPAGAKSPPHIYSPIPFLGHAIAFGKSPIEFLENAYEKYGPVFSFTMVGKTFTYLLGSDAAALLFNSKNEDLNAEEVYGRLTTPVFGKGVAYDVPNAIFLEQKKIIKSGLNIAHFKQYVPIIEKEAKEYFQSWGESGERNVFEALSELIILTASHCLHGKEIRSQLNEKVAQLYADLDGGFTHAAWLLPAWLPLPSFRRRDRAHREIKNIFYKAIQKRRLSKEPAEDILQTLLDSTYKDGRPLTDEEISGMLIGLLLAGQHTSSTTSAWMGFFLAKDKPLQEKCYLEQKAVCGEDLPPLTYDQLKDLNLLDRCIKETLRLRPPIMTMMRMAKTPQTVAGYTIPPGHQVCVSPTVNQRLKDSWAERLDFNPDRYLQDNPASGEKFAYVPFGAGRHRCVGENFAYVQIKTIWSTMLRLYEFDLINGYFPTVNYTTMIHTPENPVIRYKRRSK

[7] = molecular target: AEA-DA lipid probe targets in Neuro2a cells (Mus musculus, UniProt Q8VE88)
Chain of AEA-DA lipid probe targets in Neuro2a cells (Mus musculus, UniProt Q8VE88) (Q8VE88 whole entry): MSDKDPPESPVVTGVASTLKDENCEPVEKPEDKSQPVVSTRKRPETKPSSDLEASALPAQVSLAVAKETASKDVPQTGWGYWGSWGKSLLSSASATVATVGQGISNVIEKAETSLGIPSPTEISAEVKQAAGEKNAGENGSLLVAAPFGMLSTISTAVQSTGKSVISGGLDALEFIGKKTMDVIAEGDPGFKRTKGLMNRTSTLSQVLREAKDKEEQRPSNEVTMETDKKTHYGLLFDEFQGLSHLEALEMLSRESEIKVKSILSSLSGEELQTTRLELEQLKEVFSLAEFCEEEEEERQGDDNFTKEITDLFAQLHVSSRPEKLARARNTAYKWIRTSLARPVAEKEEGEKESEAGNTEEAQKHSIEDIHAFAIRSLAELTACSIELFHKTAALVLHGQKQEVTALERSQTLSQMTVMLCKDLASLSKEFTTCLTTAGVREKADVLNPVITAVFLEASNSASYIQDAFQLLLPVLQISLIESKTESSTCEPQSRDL

[8] = molecular target: T4, AEA-DA lipid probe targets in Neuro2a cells (Mus musculus, UniProt Q91V01); conditions: for SILAC ratio, LPCAT3 (Q6P1A2): Neuro2a cells, AEA-DA probe
T4 sequence (Q91V01 1-487): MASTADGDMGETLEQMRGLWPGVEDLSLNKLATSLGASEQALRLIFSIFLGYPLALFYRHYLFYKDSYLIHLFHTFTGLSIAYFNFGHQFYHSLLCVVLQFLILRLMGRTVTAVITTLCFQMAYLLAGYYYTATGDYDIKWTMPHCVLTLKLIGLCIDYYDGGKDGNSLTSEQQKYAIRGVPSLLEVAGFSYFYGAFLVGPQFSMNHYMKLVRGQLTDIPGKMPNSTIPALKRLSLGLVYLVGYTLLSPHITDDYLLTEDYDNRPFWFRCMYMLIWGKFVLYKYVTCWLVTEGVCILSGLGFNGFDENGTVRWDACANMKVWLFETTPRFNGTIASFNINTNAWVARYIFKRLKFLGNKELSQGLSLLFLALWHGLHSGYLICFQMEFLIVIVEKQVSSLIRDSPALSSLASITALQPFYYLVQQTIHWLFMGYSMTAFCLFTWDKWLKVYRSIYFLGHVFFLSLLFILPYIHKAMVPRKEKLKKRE

[9] = molecular target: AEA-DA lipid probe targets in Neuro2a cells (Mus musculus, UniProt Q9QUJ7)
Chain of AEA-DA lipid probe targets in Neuro2a cells (Mus musculus, UniProt Q9QUJ7) (Q9QUJ7 whole entry): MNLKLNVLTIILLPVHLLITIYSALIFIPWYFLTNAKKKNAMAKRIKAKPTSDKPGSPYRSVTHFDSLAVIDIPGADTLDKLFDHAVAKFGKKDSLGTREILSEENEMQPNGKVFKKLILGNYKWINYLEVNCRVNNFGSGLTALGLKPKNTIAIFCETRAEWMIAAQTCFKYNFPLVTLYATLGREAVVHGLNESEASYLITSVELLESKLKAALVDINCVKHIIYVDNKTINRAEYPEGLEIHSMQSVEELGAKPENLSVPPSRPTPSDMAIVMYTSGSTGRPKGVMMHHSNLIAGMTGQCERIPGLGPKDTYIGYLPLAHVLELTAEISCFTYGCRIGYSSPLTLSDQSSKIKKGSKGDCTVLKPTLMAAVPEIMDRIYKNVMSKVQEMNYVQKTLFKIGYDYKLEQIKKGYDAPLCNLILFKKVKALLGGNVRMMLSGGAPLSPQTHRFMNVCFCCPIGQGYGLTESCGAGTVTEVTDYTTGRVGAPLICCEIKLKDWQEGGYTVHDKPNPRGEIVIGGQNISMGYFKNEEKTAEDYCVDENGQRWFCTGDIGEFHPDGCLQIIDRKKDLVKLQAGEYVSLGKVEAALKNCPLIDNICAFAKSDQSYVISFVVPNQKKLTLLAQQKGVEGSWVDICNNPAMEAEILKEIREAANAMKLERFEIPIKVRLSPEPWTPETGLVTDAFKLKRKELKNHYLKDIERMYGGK

[10] = molecular target: T5, AEA-DA lipid probe targets in Neuro2a cells (Mus musculus, UniProt Q3KNM2); conditions: for SILAC ratio, MARCH5 (Q3KNM2): Neuro2a cells, AEA-DA probe
T5 sequence (Q3KNM2 1-278): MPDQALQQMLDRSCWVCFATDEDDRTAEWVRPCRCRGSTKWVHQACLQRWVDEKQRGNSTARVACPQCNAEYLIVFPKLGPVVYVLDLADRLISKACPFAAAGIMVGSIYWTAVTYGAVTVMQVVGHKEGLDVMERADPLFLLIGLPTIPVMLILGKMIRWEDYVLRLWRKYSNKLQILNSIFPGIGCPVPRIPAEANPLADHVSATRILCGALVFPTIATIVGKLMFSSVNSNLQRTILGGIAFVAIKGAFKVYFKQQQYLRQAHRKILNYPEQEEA

[11] = molecular target: T6, AEA-DA lipid probe targets in Neuro2a cells (Mus musculus, UniProt Q8BKE6)
T6 sequence (Q8BKE6 1-462): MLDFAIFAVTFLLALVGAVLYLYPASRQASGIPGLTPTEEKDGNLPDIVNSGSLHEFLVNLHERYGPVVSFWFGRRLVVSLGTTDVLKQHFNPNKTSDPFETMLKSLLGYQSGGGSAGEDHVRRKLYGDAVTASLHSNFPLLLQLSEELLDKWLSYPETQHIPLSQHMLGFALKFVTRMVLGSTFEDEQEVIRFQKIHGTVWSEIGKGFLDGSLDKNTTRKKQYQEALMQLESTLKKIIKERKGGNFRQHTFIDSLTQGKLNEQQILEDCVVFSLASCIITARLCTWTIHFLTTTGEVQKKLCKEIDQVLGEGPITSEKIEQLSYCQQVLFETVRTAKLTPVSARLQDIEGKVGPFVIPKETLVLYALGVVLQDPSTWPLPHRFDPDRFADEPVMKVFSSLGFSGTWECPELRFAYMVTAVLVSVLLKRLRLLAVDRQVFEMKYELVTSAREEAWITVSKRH

## CCCCC/C=C\C/C=C\C/C=C\C/C=C\CCCC(=O)NCCO [AEA, anandamide, reference compound]
[1]; competitor 200 μM
  SILAC ratio, Rab11a: 1.6
[2]; competitor 200 μM
  SILAC ratio Myl6: 1.0
[3]; competitor 200 μM
  SILAC ratio P4ha2: 1.0
[4]; competitor 200 μM
  SILAC ratio Stip1: 1.3
[5]; competitor 200 μM
  SILAC ratio, Atl2: 2.0
[6]; competitor 200 μM
  SILAC ratio Cyp51a1: 1.8
[7]; competitor 200 μM
  SILAC ratio, Fam114a2: 1.4
[8]; competitor 200 μM
  SILAC ratio, LPCAT3 (Q6P1A2): 1.4
  SILAC ratio, Lpcat3: 1.4
[9]; competitor 200 μM
  SILAC ratio Acsl4: 1.6

## O=C(/C=C/c1cccnc1)NCCCCC1CCN(C(=O)c2ccccc2)CC1 [FK-866, reference compound]
[1]; competitor 25 μM
  SILAC ratio, Rab11a: 1.2
[10]; competitor 25 μM
  SILAC ratio, MARCH5 (Q3KNM2): 1.3
  SILAC ratio, March5: 1.3
[2]; competitor 25 μM
  SILAC ratio Myl6: 1.3
[3]; competitor 25 μM
  SILAC ratio P4ha2: 1.1
[4]; competitor 25 μM
  SILAC ratio Stip1: 1.3
[5]; competitor 25 μM
  SILAC ratio, Atl2: 1.1
[11]; competitor 25 μM
  SILAC ratio, Cyp20a1: 1.1
[6]; competitor 25 μM
  SILAC ratio Cyp51a1: 1.5
[7]; competitor 25 μM
  SILAC ratio, Fam114a2: 1.0
[8]; competitor 25 μM
  SILAC ratio, LPCAT3 (Q6P1A2): 2.3
  SILAC ratio, Lpcat3: 2.3
[9]; competitor 25 μM
  SILAC ratio Acsl4: 1.3

## CN1CCN(C(=O)c2c(-c3ccccc3)c3cc([N+](=O)[O-])ccc3n2C)CC1 [KML110, (1-Methyl-5-nitro-3-phenyl-1H-indol-2-yl)(4-methylpiperazin-1-yl)methanone]
[1]; competitor 25 μM
  SILAC ratio, Rab11a: 1.6
[10]; competitor 25 μM
  SILAC ratio, March5: 1.5
[2]; competitor 25 μM
  SILAC ratio Myl6: 1.4
[3]; competitor 25 μM
  SILAC ratio P4ha2: 1.3
[4]; competitor 25 μM
  SILAC ratio Stip1: 1.6
[5]; competitor 25 μM
  SILAC ratio, Atl2: 1.3
[11]; competitor 25 μM
  SILAC ratio, Cyp20a1: 1.4
[6]; competitor 25 μM
  SILAC ratio Cyp51a1: 1.2
[7]; competitor 25 μM
  SILAC ratio, Fam114a2: 2.2
[8]; competitor 25 μM
  SILAC ratio, Lpcat3: 1.3
[9]; competitor 25 μM
  SILAC ratio Acsl4: 1.3

## CN1CCN(C(=O)c2[nH]c3ccc([N+](=O)[O-])cc3c2-c2ccccc2)CC1 [MJN228, (4-Methylpiperazin-1-yl)(5-nitro-3-phenyl-1H-indol-2-yl)methanone]
[1]; competitor 10 μM
  SILAC ratio, Rab11a: 1.2
[1]; competitor 25 μM
  SILAC ratio, Rab11a: 1.6
[1]; competitor 50 μM
  SILAC ratio, Rab11a: 1.9
[1]; competitor 100 μM
  SILAC ratio, Rab11a: 2.4
[10]; competitor 25 μM
  SILAC ratio, MARCH5 (Q3KNM2): 1.1
  SILAC ratio, March5: 1.1
[10]; competitor 10 μM
  SILAC ratio, March5: 1.1
[10]; competitor 50 μM
  SILAC ratio, March5: 1.0
[10]; competitor 100 μM
  SILAC ratio, March5: 1.1
[2]; competitor 10 μM
  SILAC ratio Myl6: 1.1
[2]; competitor 25 μM
  SILAC ratio Myl6: 1.0
[2]; competitor 50 μM
  SILAC ratio Myl6: 1.3
[3]; competitor 10 μM
  SILAC ratio P4ha2: 1.2
[3]; competitor 25 μM
  SILAC ratio P4ha2: 1.3
[3]; competitor 50 μM
  SILAC ratio P4ha2: 1.0
[3]; competitor 100 μM
  SILAC ratio P4ha2: 1.0
[4]; competitor 10 μM
  SILAC ratio Stip1: 1.2
[4]; competitor 25 μM
  SILAC ratio Stip1: 1.3
[4]; competitor 50 μM
  SILAC ratio Stip1: 1.2
[4]; competitor 100 μM
  SILAC ratio Stip1: 1.9
[5]; competitor 10 μM
  SILAC ratio, Atl2: 1.1
[5]; competitor 25 μM
  SILAC ratio, Atl2: 1.4
[5]; competitor 50 μM
  SILAC ratio, Atl2: 1.6
[11]; competitor 10 μM
  SILAC ratio, Cyp20a1: 1.2
[11]; competitor 25 μM
  SILAC ratio, Cyp20a1: 1.3
[11]; competitor 50 μM
  SILAC ratio, Cyp20a1: 1.2
[11]; competitor 100 μM
  SILAC ratio, Cyp20a1: 1.6
[6]; competitor 10 μM
  SILAC ratio Cyp51a1: 1.5
[6]; competitor 25 μM
  SILAC ratio Cyp51a1: 2.2
[6]; competitor 50 μM
  SILAC ratio Cyp51a1: 2.3
[6]; competitor 100 μM
  SILAC ratio Cyp51a1: 3.1
[7]; competitor 10 μM
  SILAC ratio, Fam114a2: 1.6
[7]; competitor 25 μM
  SILAC ratio, Fam114a2: 3.5
[7]; competitor 50 μM
  SILAC ratio, Fam114a2: 4.1
[7]; competitor 100 μM
  SILAC ratio, Fam114a2: 7.6
[8]; competitor 10 μM
  SILAC ratio, Lpcat3: 1.2
[8]; competitor 25 μM
  SILAC ratio, Lpcat3: 1.2
[8]; competitor 50 μM
  SILAC ratio, Lpcat3: 1.4
[8]; competitor 100 μM
  SILAC ratio, Lpcat3: 1.5
[9]; competitor 10 μM
  SILAC ratio Acsl4: 1.2
[9]; competitor 25 μM
  SILAC ratio Acsl4: 1.4
[9]; competitor 50 μM
  SILAC ratio Acsl4: 1.6
[9]; competitor 100 μM
  SILAC ratio Acsl4: 1.7

## C=CCN(C)CCCCCCOc1ccc(C(=O)c2ccc(Br)cc2)c(F)c1 [Ro 48-8071, reference compound]
[1]; competitor 25 μM
  SILAC ratio, Rab11a: 1.3
[10]; competitor 25 μM
  SILAC ratio, MARCH5 (Q3KNM2): 1.1
  SILAC ratio, March5: 1.1
[2]; competitor 25 μM
  SILAC ratio Myl6: 0.7
[3]; competitor 25 μM
  SILAC ratio P4ha2: 1.0
[4]; competitor 25 μM
  SILAC ratio Stip1: 1.0
[5]; competitor 25 μM
  SILAC ratio, Atl2: 1.2
[11]; competitor 25 μM
  SILAC ratio, Cyp20a1: 1.1
[6]; competitor 25 μM
  SILAC ratio Cyp51a1: 1.3
[7]; competitor 25 μM
  SILAC ratio, Fam114a2: 1.6
[8]; competitor 25 μM
  SILAC ratio, LPCAT3 (Q6P1A2): 1.1
  SILAC ratio, Lpcat3: 1.1
[9]; competitor 25 μM
  SILAC ratio Acsl4: 1.1
